The values below come from US10035792B2, “Resorcinol derivative as HSP90 inhibitor” (priority 2015, dated 2018).

One test addresses HSP90α (Homo sapiens (Human), UniProt P07900). Put plainly: Fluorescence polarization (FP) HSP90-alpha target binding assay. An excerpt:
In the present invention, the method of fluorescence polarization (FP) was used to establish the screening platform for HSP90-alpha inhibitors. The principle based on is to calculate fluorescence polarization values in horizontal and vertical directions by detecting molecular weight changes before and after interaction of fluorescent labeled small molecules with other molecules, in use for correlation analysis. If binding equilibria between the fluorescent labeled small molecule and the macromolecule is established, it moves slowly when excited, and the fluorescence polarization values measured will increase. If the fluorescent labeled small molecule binding to the macromolecule is replaced with other ligands, its rotational or inversional speed in free state will become faster, the emitted light would be depolarized with respect to the exciting light plane, and thus the polarized light value measured will decrease, so as to calculate the polarization value of the sample (the unit of polarization value is mP).
The fluorescent labeled small molecule used in the present invention was VER-00051001 (synthesized by reference to the synthetic method described in JMC, 2008, 51, 196-218). The reaction was carried out in a 384-well black plate, using the reaction hydrophobic protein HFB buffer: 100 mM Tris.Cl pH 7.4, 20 mM KCl, 6 mM MgCl2, 5 μg/mL BSA, 25 nM full-length Hsp90U, 10 nM VER-51001. The volume of the reaction system was […], containing 5 nM GM-BODIPY (geldanamycin), 30 nM HSP90 and the test small molecular compound or DMSO (dimethyl sulfoxide), wherein the DMSO content was 2% o. Additional two group wells were established, wherein the wells only added with HFB buffer were used as blank controls, and the wells further added with 5 nM GM-BODIPY were used as negative controls. The reaction was carried out at 4° C. for 12-16 hours. The mP value was measured by Biotek microplate reader at 485 nm of excitation wavelength and 535 nm of emission wavelength. The inhibition rate was calculated using the following equation: (Compound-free mP−Compound mP)/(Compound-free mP−negative control mP)×100%
For orientation: In fluorescence polarisation assays a small probe gives low polarisation when free and higher when bound to something large.

For test [1], the system named is human lung cancer cell line A549. Put plainly: Tumor cell growth inhibition, SRB staining, A549. Type of test: cell-based. The note with it: A549, 72 h. As to the method:
The growth inhibition assay of tumor cells was detected by sulforhodamine B (SRB) staining method. The specific steps were as follows: inoculating human colon cancer cell line HCT116 and human lung cancer cell line A549 (purchased from American Type Culture Collection, ATCC) at the logarithmic growth phase into a 96-well micro culture plate at an appropriate concentration of 4000 cells/well, 100 μL for each well; after culturing overnight, adding with the compound at different concentrations (100, 10, 1, 0.1, 0.01 μM) to react for 72 h, wherein triplicate wells were set up for each concentration, and solvent control wells with the corresponding concentration and zero wells without cells were also set up. After the completion of the reaction, the culture medium was removed from the adherent cells, the later was added with 10% (w/v) trichloroacetic acid (100 μL/well) at 4° C. to fix for 1 h, and then washed five times with distilled water. After drying at room temperature, 100 μL of SRB solution (4 mg/mL, dissolved in 1% glacial acetic acid) was added into each well, followed by incubation and staining for 15 min at room temperature. The uncombined SRB was removed by washing five times with 1% glacial acetic acid. After drying at room temperature, 100 μL of 10 mM Tris solution was added into each well, and the optical density (OD) at 515 nm was measured by a […] microplate reader. The inhibition rate of the drug to tumor cell growth was calculated according to the following equation: Inhibition rate (%)=(OD of control well-OD of drug well)/OD of control well×100%. The experiment was repeated twice.
Background: In SRB staining, fixed cells bind dye roughly in proportion to their protein.

Where [2] appears, read: fluorescence polarization, read-out: Target binding ability HSP90α FP IC50.

Structures are written as SMILES. pEC50, pIC50: −log10 of the molar value. Where two headings read alike, the source gives them in different places. A value given as a limit tells only on which side of the number the result lay.

In the case of `CCNC(=O)c1noc(-c2cc(C(C)C)c(O)cc2O)c1-c1ccc2c(c1)CCN(C(=O)CCN1CCOCC1)C2` [Example 58, 5-(2,4-dihydroxyl-5-isopropylphenyl)-N-ethyl-4-(2-(3-morpholino-4-yl-propionyl)-1,2,3,4-tetrahydroisoquinolin-6-yl)isoxazole-3-carboxamide], the pIC50 on HSP90α (setting [2]) was 7.00 to 7.70. Moreover, in test [1], the negative-log EC50 (pEC50) was less than 7.00.
For the molecule `CCNC(=O)c1noc(-c2cc(C(C)C)c(O)cc2O)c1-c1cc2c(s1)CCN(C)CC2` [Example 22, 5-(2,4-dihydroxyl-5-isopropylphenyl)-N-ethyl-4-(6-methyl-5,6,7,8-tetrahydro-4H-thieno[2,3-d]azepin-2-yl) isoxazole-3-carboxamide], the pIC50 at HSP90α (setting [2]) is more than 7.70. In test [1], this molecule gave a pEC50 of 7.00 to 7.70.
`CCNC(=O)c1noc(-c2cc(C(C)C)c(O)cc2O)c1-c1ccc2c(c1)C1CCC2N1CC` (stereo not drawn) [Example 6, 5-(2,4-dihydroxyl-5-isopropylphenyl)-N-ethyl-4-(9-ethyl-1,2,3,4-tetrahydro-1,4-epiminonaphth-6-yl)isoxazole-3-carboxamide] showed a pIC50 at HSP90α of 7.00 to 7.70. For the same molecule, in test [1], the pEC50 is more than 7.70.
Taken in the same sequence, the figures for `CCNC(=O)c1noc(-c2cc(C(C)C)c(O)cc2O)c1-c1ccc2c(c1)C1CCC2N1CC(C)C` (stereo not drawn) [Example 8, 5-(2,4-dihydroxyl-5-isopropylphenyl)-N-ethyl-4-(9-isobutyl-1,2,3,4-tetrahydro-1,4-epiminonaphth-6-yl)isoxazole-3-carboxamide] were 7.00 to 7.70 and more than 7.70.
Turning to `CCNC(=O)c1onc(-c2cc(C(C)C)c(O)cc2O)c1-c1ccc2c(c1)CCN(C)CC2` [Example 27, 3-(2,4-dihydroxyl-5-isopropylphenyl)-N-ethyl-4-(3-methyl-2,3,4,5-tetrahydro-1H-benzo[d]azepin-7-yl)isoxazole-5-carboxamide], the pIC50 on HSP90α (setting [2]) is more than 7.70. The same molecule showed a pEC50 in test [1] of more than 7.70.
With `CCc1cnc(-c2noc(-c3cc(C(C)C)c(O)cc3O)c2-c2ccc3c(c2)CCN(C)C3)[nH]1` [Example 16, 4-(3-(5-ethyl-1H-imidazol-2-yl)-4-(2-methyl-1,2,3,4-tetrahydroisoquinolin-6-yl)isoxazol-5-yl)-6-isopropylbenzene-1,3-diol], on HSP90α (setting [2]), the pIC50 is 7.00 to 7.70. This molecule also gave a pEC50 in test [1] of more than 7.70.
As for `CC(C)c1cc(-c2noc(C(=O)NCCO)c2-c2ccc3c(c2)CCN(C)C3)c(O)cc1O` [Example 64, 3-(2,4-dihydroxyl-5-isopropylphenyl)-N-(2-hydroxylethyl)-4-(2-methyl-1,2,3,4-tetrahydroisoquinolin-6-yl)isoxazole-5-carboxamide], the pIC50 at HSP90α (setting [2]) is more than 7.70. The molecule further had a pEC50 in test [1] of more than 7.70.
Turning to `CCNC(=O)c1onc(-c2cc(C(C)C)c(O)cc2O)c1-c1ccc2c(c1)CCN(C)C2` [Example 12, 3-(2,4-dihydroxyl-5-isopropylphenyl)-N-ethyl-4-(2-methyl-1,2,3,4-tetrahydroisoquinolin-6-yl)isoxazole-5-carboxamide], the pIC50 at HSP90α (setting [2]) was more than 7.70. For the same molecule, the pEC50 in test [1] was more than 7.70.
Consider `CCNC(=O)c1noc(-c2cc(C(C)C)c(O)cc2O)c1-c1ccc2c(c1)CCN(CC)C2` [Example 49, 5-(2,4-dihydroxyl-5-isopropylphenyl)-N-ethyl-4-(2-ethyl-1,2,3,4-tetrahydroisoquinolin-6-yl)isoxazole-3-carboxamide], for which the pIC50 on HSP90α (setting [2]) was more than 7.70. The molecule also gave a pEC50 in test [1] of 7.00 to 7.70.
As to `CCNC(=O)c1noc(-c2cc(C(C)C)c(O)cc2O)c1-c1ccc2c(c1)CCN(CCCOC)C2` [Example 47, 5-(2,4-dihydroxyl-5-isopropylphenyl)-N-ethyl-4-(2-(3-methoxypropyl)-1,2,3,4-tetrahydroisoquinolin-6-yl)isoxazole-3-carboxamide], on HSP90α (setting [2]), the pIC50 was 7.00 to 7.70. This molecule also showed a negative logarithm of the EC50 (pEC50) in test [1] of 7.00 to 7.70.
Turning to `CCNC(=O)c1noc(-c2cc(C(C)C)c(O)cc2O)c1-c1ccc2c(c1)C1CCC2N1C` (stereo not drawn) [Example 5, 5-(2,4-dihydroxyl-5-isopropylphenyl)-N-ethyl-4-(9-methyl-1,2,3,4-tetrahydro-1,4-epiminonaphth-6-yl)isoxazole-3-carboxamide], at HSP90α, the negative-log IC50 (pIC50) is 7.00 to 7.70. In test [1], this molecule showed a pEC50 of more than 7.70.
As for `CC(C)c1cc(-c2onc(C(=O)NCC(F)(F)F)c2-c2ccc3c(c2)CCN(C)C3)c(O)cc1O` [Example 39, 5-(2,4-dihydroxyl-5-isopropylphenyl)-N-(2,2,2-trifluoroethyl)-4-(2-methyl-1,2,3,4-tetrahydroisoquinolin-6-yl)isoxazole-3-carboxamide], the negative-log IC50 (pIC50) on HSP90α (setting [2]) is 7.00 to 7.70. The pEC50 in test [1] is 7.00 to 7.70.
`CCNC(=O)c1noc(-c2cc(C(C)C)c(O)cc2O)c1-c1ccc2c(c1)CCN(CCOC)C2` [Example 45, 5-(2,4-dihydroxyl-5-isopropylphenyl)-N-ethyl-4-(2-(2-methoxyethyl)-1,2,3,4-tetrahydroisoquinolin-6-yl)isoxazole-3-carboxamide]: on HSP90α (setting [2]), the pIC50 was more than 7.70. In test [1], the pEC50 was 7.00 to 7.70.
In the case of `CCNC(=O)c1noc(-c2cc(C(C)C)c(O)cc2O)c1-c1ccc2c(c1)CCN(CCC(=O)N(C)C)C2` [Example 56], on HSP90α (setting [2]), the pIC50 is 7.00 to 7.70. Besides, the pEC50 in test [1] is less than 7.00.
Taken in the same sequence, the figures for `CCNC(=O)c1noc(-c2cc(CC)c(O)cc2O)c1-c1ccc2c(c1)CCN(C)C2` [Example 34, 5-(5-ethyl-2,4-dihydroxyl-phenyl)-N-ethyl-4-(2-methyl-1,2,3,4-tetrahydroisoquinolin-6-yl)isoxazole-3-carboxamide] were more than 7.70 and 7.00 to 7.70.
In the same order, the values of `CCCNC(=O)c1noc(-c2cc(C(C)C)c(O)cc2O)c1-c1ccc2c(c1)CCN(C)C2` [Example 37, 5-(2,4-dihydroxyl-5-isopropylphenyl)-N-propyl-4-(2-methyl-1,2,3,4-tetrahydroisoquinolin-6-yl)isoxazole-3-carboxamide] are 7.00 to 7.70 and 7.00 to 7.70.
With `CNC(=O)c1noc(-c2cc(C(C)C)c(O)cc2O)c1-c1ccc2c(c1)CCN(C)C2` [Example 36, 5-(2,4-dihydroxyl-5-isopropylphenyl)-N-methyl-4-(2-methyl-1,2,3,4-tetrahydroisoquinolin-6-yl)isoxazole-3-carboxamide], the pIC50 on HSP90α (setting [2]) was more than 7.70. The molecule also showed a pEC50 in test [1] of more than 7.70.
For `COCCCNC(=O)c1noc(-c2cc(C(C)C)c(O)cc2O)c1-c1ccc2c(c1)CCN(C)C2` [Example 42, 5-(2,4-dihydroxyl-5-isopropylphenyl)-N-(3-methoxypropyl)-4-(2-methyl-1,2,3,4-tetrahydroisoquinolin-6-yl)isoxazole-3-carboxamide], on HSP90α (setting [2]), the pIC50 was 7.00 to 7.70. The molecule also gave a negative logarithm of the EC50 (pEC50) in test [1] of 7.00 to 7.70.
Take `CCNC(=O)c1noc(-c2cc(C(C)C)c(O)cc2O)c1-c1ccc2c(c1)C1CCC2N1` (stereo not drawn) [Example 4, 5-(2,4-dihydroxyl-5-isopropylphenyl)-N-ethyl-4-(1,2,3,4-tetrahydro-1,4-epiminonaphth-6-yl)isoxazole-3-carboxamide]: the pIC50 at HSP90α is 7.00 to 7.70. The pEC50 in test [1] is 7.00 to 7.70.
`CCNC(=O)c1noc(-c2cc(C(C)C)c(O)cc2O)c1-c1ccc2c(c1)CCN(CCS(=O)(=O)CC)C2` [Example 48, 5-(2,4-dihydroxyl-5-isopropylphenyl)-N-ethyl-4-(2-(2-ethylsulfonyl)ethyl-1,2,3,4-tetrahydroisoquinolin-6-yl)isoxazole-3-carboxamide]: the pIC50 on HSP90α (setting [2]) is 7.00 to 7.70. For the same molecule, the pEC50 in test [1] is 7.00 to 7.70.
On to `CCNC(=O)c1noc(-c2cc(C(C)C)c(O)cc2O)c1-c1nc2c(s1)CCN(C)C2` [Example 10, 5-(2,4-dihydroxyl-5-isopropyl-phenyl)-N-ethyl-4-(5-methyl-4,5,6,7-tetrahydrothiazolo[4,5-c]pyridin-2-yl)isoxazole-3-carboxamide], for which, on HSP90α (setting [2]), the pIC50 is 7.00 to 7.70. Besides, the pEC50 in test [1] was 7.00 to 7.70.

Usually pIC50 stands for the IC50 on a negative log10 scale, so that one unit is a factor of ten. One may read the pEC50 as the EC50 on a negative log10 scale, so that one unit is a factor of ten. Lower therefore signals a high EC50.
